Experimental findings from patent US8785400B2, “Methods and compositions relating to islet cell neogenesis” (CureDM Group Holdings, LLC, priority 2006, dated 2014) are described below.

Assay [1] has as its system streptozocin-induced diabetic mouse. In words: Streptozocin-induced diabetic mouse (Example 6). The format is in vivo. An excerpt: The streptozocin-induced diabetic mouse is a convenient animal model of type 1 diabetes because researchers are able to chemically induce diabetes under controlled conditions rather than waiting for mice to become diabetic naturally or by forcing diabetes through prescribed obesity. Based on experience with the streptozocin model in the rat, a high degree of variability was anticipated for the induction of the disease in mice and therefore 60 mice were induced with streptozocin. Mice were injected intraperitoneally with streptozocin at 40 mg/kg in citrate buffer, pH4.5, on 5 consecutive days in an attempt to render them diabetic. A mouse was considered diabetic once its blood glucose level was greater than 16.7 mmol/L (300 mg/dL) for at least 1 week. If the blood glucose level of any animal became too high (>400 mg/dL) the animal was treated with an effective amount of insulin. In this example, 60 male mice, ranging from 6-8 weeks old at the outset of the study, were treated with streptozocin as described above. Those mice that were declared diabetic were then used to test the effectiveness of HIP2 as compared to other test agents.
Animals were group housed in compliance with the National Research Council “Guide for the Care and Use of Laboratory Animals”. The animals received 12 hours light/12 hours dark, except when room lights were turned on during the dark cycle to accommodate study procedures. Room temperature was maintained between 18 to 26° C. at all times. Relative humidity was maintained between 30-70% at all times. All animals were given access to Harlan Teklad Rodent Diet or equivalent and tap water via water bottle. Animals were allowed to acclimate to their new environment for a minimum of 7 days prior to first dosing.
Mice were randomly divided and assigned to study groups. Each study group was assigned treatment with one of 5 test agents (see Treatment section below). Prior to being treated, each mouse was tested for diabetes via monitoring their blood glucose levels. After confirmation that the mice were diabetic (blood glucose levels greater than 16.7 mmol/L (300 mg/dL) for at least 1 week) the mice were dosed with their respective test agent.
Each study group received doses of one of the following test agents: HIP2, HIP1, HIP, Hamster INGAP (SEQ ID NO:1) or isotonic saline “Vehicle” (0.9% NaCl) (negative control). Mice were given doses of their respective agent interperitoneally twice daily (am and pm, +/−2 hours for each administration) at 250 ug/dose, in 100 ul dose volume, for 28 consecutive days. Test agents were prepared once daily by dissolving the appropriate amount of test agent in isotonic saline to result in a 2.5 mg/ml solution. Blood glucose levels were tested every 3 days, at the same time each day, using a glucometer. If the blood glucose level in any animal became too high, the animal was treated with insulin. At the end of the treatment, all surviving animals were euthanized by CO2 asphyxiation following terminal blood collection. Blood samples were collected under CO2 cardiocentesis. The plasma was separated and then frozen at −80° C. For histological analysis, the pancreas from each mouse was removed and snap-frozen.
(§1) Blood glucose levels are measured every 3 days and tracked to evaluate differences in glucose levels.

Assay [2] has as its system NOD mice. In words: NOD mouse model of type 1 diabetes (Example 5). The format is in vivo. The conditions noted are these: 250 ug/dose i.p. twice daily, 28 days, with anti-CD3, vs other test agents.
From the text: The non-obese diabetic (NOD) mouse strain has long been studied as an excellent model of type 1 diabetes because it spontaneously develops a disease that is very similar to the human condition. Diabetes in NOD mice is mediated by inflammatory autoreactive T cells that recognize pancreatic islet antigens and escape central and peripheral tolerance. In a parental colony of NOD mice, incidence of diabetes in female NOD mice is typically 75-90% by 30 weeks but may exceed 90% in some cohorts. In this example, 50 female NOD mice, ranging from 13-14 weeks old at the outset of the study, are used to test the effectiveness of HIP2 as compared to other test agents. Due to the unexpected variability of the degree of onset of disease, the number used in this example (50 female mice) is considered to be the minimum needed to result in a sufficient number of mice that will onset with disease within the timeframe of the study.
Animals were group housed in compliance with the National Research Council “Guide for the Care and Use of Laboratory Animals”. The animals received 12 hours light/12 hours dark, except when room lights were turned on during the dark cycle to accommodate study procedures. Room temperature was maintained between 18 to 26° C. at all times. […]
as §1

Where [3] appears, read: streptozocin mice, 250 ug/dose i.p. twice daily, 28 days, vs other test agents.

As for “HIP2: Human proIslet Peptide, fragment of human REG3A, in purified, synthetic, or recombinant form (SEQ ID NO:4) (IGLHDPTQGTEPNG; Fragment of naturally occurring human REG3 protein)”, the “time at which mice were completely insulin-free” value in assay [1] is at most 21 days. Moreover, the “glucose levels from baseline compared with control” value in assay [1] (streptozocin mice) is “significant reduction”. Also, in assay [1] (setting [3]), the blood glucose levels entry was “pronounced reduction” and the “insulinitis in the pancreas” value is “decreased showing of insulinitis”. Besides, the “insulin requirements (and rate of decrease)” value in assay [1] (streptozocin mice, compared to placebo) is “Significant reductions”. In assay [2], the blood glucose levels result is given as “pronounced reduction” and the insulinitis in pancreas result is “decreased showing of insulinitis”.
